How the values were obtained:
[1] = target: T1, Prostaglandin E2 receptor EP3 subtype (Homo sapiens, UniProt P43115); assay: Binding affinity to EP3 receptor
T1 sequence (P43115 whole entry): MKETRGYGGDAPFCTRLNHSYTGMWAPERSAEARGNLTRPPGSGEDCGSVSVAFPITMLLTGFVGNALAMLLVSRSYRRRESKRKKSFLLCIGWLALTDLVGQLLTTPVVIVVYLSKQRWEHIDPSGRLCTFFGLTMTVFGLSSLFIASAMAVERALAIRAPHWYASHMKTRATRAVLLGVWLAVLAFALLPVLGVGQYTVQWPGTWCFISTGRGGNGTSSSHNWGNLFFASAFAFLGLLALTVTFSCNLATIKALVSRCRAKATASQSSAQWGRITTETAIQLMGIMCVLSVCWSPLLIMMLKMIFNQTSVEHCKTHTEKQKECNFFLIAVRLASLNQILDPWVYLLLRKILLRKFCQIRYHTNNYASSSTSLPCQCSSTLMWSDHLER

[2] = target: T2, Prostaglandin E2 receptor EP1 subtype (Homo sapiens, UniProt P34995); assay: Binding affinity to EP1 receptor
T2 sequence (P34995 whole entry): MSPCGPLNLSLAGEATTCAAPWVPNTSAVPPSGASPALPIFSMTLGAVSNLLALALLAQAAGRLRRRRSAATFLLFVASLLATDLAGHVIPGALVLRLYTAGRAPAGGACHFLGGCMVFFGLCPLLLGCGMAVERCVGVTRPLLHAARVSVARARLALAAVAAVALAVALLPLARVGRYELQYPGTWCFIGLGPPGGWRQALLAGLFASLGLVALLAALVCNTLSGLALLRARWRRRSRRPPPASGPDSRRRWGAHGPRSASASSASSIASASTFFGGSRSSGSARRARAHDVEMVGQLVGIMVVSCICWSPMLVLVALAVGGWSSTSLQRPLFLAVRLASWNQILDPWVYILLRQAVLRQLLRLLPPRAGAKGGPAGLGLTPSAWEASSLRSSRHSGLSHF

[3] = target: T3, Prostaglandin D2 receptor (Homo sapiens, UniProt Q13258); assay: Binding affinity to DP receptor
T3 sequence (Q13258 whole entry): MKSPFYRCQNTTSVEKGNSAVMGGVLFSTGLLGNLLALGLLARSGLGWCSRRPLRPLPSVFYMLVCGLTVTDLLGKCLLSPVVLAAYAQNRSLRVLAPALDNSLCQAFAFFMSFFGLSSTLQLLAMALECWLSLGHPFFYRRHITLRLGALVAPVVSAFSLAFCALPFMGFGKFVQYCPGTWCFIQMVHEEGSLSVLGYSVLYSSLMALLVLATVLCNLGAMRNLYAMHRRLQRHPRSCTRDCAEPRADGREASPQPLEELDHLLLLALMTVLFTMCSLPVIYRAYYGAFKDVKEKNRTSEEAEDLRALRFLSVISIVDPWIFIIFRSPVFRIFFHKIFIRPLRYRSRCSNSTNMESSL

[4] = target: Prostacyclin receptor (Homo sapiens, UniProt P43119); assay: Binding affinity to IP receptor
Chain of Prostacyclin receptor (P43119 whole entry): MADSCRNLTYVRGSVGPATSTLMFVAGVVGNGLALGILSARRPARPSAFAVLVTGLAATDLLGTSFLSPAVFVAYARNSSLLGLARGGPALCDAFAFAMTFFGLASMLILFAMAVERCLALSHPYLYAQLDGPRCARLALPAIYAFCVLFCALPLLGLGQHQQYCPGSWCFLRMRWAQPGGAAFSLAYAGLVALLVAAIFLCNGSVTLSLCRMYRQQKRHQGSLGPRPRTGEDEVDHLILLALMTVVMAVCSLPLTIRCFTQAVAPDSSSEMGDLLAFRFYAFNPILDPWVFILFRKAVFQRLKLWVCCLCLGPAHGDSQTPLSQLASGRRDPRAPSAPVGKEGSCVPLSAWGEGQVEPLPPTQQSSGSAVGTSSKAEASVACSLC

[5] = target: T4, Thromboxane A2 receptor (Homo sapiens, UniProt P21731); assay: Binding affinity to TP receptor
T4 sequence (P21731 whole entry): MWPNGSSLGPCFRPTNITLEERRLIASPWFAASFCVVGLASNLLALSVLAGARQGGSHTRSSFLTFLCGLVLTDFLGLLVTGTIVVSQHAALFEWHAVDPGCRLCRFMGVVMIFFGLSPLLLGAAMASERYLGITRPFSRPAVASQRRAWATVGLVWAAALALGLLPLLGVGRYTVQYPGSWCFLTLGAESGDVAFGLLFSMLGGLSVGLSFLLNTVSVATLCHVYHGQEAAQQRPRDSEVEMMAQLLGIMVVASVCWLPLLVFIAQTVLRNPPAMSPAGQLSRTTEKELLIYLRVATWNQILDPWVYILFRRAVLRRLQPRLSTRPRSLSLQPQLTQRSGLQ

[6] = target: Prostaglandin E2 receptor EP2 subtype (Homo sapiens, UniProt P43116); assay: Binding affinity to EP2 receptor
Chain of Prostaglandin E2 receptor EP2 subtype (P43116 whole entry): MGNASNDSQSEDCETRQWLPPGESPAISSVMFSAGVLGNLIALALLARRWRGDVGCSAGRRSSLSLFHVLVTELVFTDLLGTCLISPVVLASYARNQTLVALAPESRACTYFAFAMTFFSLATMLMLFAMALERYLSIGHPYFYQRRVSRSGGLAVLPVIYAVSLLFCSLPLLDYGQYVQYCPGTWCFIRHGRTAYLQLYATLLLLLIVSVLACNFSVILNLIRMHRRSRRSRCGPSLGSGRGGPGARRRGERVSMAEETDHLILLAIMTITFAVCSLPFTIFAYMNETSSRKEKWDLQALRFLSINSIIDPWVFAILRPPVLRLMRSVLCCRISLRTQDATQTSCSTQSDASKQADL

[7] = target: Prostaglandin F2-alpha receptor (Homo sapiens, UniProt P43088); assay: Binding affinity to FP receptor
Chain of Prostaglandin F2-alpha receptor (P43088 whole entry): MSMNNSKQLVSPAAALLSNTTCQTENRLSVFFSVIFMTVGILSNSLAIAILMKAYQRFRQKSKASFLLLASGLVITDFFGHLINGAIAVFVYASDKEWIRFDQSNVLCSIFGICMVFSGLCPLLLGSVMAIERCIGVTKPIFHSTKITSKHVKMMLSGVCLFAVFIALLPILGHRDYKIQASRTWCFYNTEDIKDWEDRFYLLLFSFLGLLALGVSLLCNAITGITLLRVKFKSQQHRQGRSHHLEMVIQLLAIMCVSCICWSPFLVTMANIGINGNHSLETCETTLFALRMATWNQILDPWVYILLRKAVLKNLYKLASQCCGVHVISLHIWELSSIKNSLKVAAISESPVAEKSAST

[8] = target: Prostaglandin E2 receptor EP4 subtype (Homo sapiens, UniProt P35408); assay: Binding affinity to EP4 receptor
Chain of Prostaglandin E2 receptor EP4 subtype (P35408 whole entry): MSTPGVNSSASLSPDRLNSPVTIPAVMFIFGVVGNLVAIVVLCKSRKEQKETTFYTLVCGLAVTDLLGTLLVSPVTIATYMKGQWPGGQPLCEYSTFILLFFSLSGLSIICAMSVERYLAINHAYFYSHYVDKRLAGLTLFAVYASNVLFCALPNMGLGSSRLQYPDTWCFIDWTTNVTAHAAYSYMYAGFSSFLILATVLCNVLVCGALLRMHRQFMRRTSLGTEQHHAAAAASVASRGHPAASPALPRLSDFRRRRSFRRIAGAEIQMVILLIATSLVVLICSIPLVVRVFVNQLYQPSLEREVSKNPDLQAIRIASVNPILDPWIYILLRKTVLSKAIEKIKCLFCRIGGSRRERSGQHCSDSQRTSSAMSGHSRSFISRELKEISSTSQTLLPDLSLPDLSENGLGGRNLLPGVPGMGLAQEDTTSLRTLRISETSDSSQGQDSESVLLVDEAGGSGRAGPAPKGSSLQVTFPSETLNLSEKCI

[9] = target: T3, Prostaglandin D2 receptor; assay: Activity at DP receptor assessed as inhibition of PGD2-induced cAMP accumulation in platelet rich plasma; assay type: functional
[10] = target: T3, Prostaglandin D2 receptor; assay: Activity at DP receptor assessed as inhibition of PGD2-induced cAMP accumulation in platelet; assay type: functional

Ki [3]	Ki [5]	Compound	also measured
0.011 µM	0.0017 µM	O=C(O)CC1CCCc2c1n(Cc1ccc(Cl)cc1)c1c(F)cc(F)cc21 (stereo not drawn)	Ki [1]: > 0.3 µM; Ki [2]: > 7 µM; Ki [4]: > 2 µM; Ki [6]: > 4.6 µM; Ki [7]: > 20 µM; Ki [8]: > 2.9 µM
0.016 µM	0.0078 µM	O=C(O)CC1CCCc2c1n(Cc1ccc(Cl)cc1)c1c(CO)cccc21 (stereo not drawn)	
0.028 µM	3.7 µM	CN(C)C(=O)c1cccc2c3c(n(Cc4ccc(Cl)cc4)c12)C(CC(=O)O)CCC3 (stereo not drawn)	
0.08 µM	0.99 µM	CS(=O)(=O)c1ccc2c(c1)c1c(n2Cc2ccc(Cl)cc2)C(CC(=O)O)CCC1 (stereo not drawn)	
0.0017 µM	0.2 µM	CS(=O)(=O)c1cc(Br)c2c(c1)c1c(n2Cc2ccc(Cl)cc2)C(CC(=O)O)CC1 (stereo not drawn)	
0.0039 µM	0.14 µM	O=C(O)CC1CCCc2c1n(Cc1ccc(Cl)cc1)c1c([S+]([O-])Cc3ccccc3)cccc21 (stereo not drawn)	
0.001 µM	0.0026 µM	CSc1cccc2c3c(n(Cc4ccc(Cl)cc4)c12)C(CC(=O)O)CCC3 (stereo not drawn)	
0.004 µM	0.34 µM	CC[S+]([O-])c1cccc2c3c(n(Cc4ccc(Cl)cc4)c12)C(CC(=O)O)CCC3 (stereo not drawn)	
0.001 µM	0.18 µM	CS(=O)(=O)c1cc(Br)c2c(c1)c1c(n2Cc2ccc3ccc(Cl)cc3n2)C(CC(=O)O)CC1 (stereo not drawn)	
0.0018 µM	7.1 µM	CC(O)c1cc(S(C)(=O)=O)cc2c3c(n(Cc4ccc(Cl)cc4)c12)[C@@H](CC(=O)O)CC3 (stereo partly drawn)	Ki [1]: > 20 µM; Ki [2]: > 20 µM; Ki [4]: > 20 µM; IC50 [9]: 0.0086 µM; Ki [6]: 0.39 µM; Ki [7]: > 20 µM; IC50 [10]: 0.002 µM; Ki [8]: > 2.9 µM
0.029 µM	0.096 µM	O=C(O)CC1CCCc2c1n(Cc1ccc(Cl)cc1)c1c([S+]([O-])c3ccccc3)cccc21 (stereo not drawn)	
	0.13 µM	C[S+]([O-])c1cccc2c3c(n(Cc4ccc(Cl)cc4)c12)[C@@H](CC(=O)O)CCC3 (single isomer, unassigned; 16)	
0.0018 µM	0.047 µM	C[S+]([O-])c1cccc2c3c(n(Cc4ccc(Cl)cc4)c12)[C@@H](CC(=O)O)CCC3 (single isomer, unassigned; 17)	
0.0028 µM	0.33 µM	CS(=O)(=O)c1cc(C2CCCCC2)c2c(c1)c1c(n2Cc2ccc(Cl)cc2)C(CC(=O)O)CC1 (stereo not drawn)	
0.0041 µM	0.26 µM	CS(=O)(=O)c1cc(Br)c2c(c1)c1c(n2Cc2cccc(OC(F)(F)F)c2)C(CC(=O)O)CC1 (stereo not drawn)	
0.0041 µM	0.1 µM	CN(C)S(=O)(=O)c1cc(Br)c2c(c1)c1c(n2Cc2ccc(Cl)cc2)C(CC(=O)O)CC1 (stereo not drawn)	
0.0075 µM	0.82 µM	CC(C)(C)c1ccc(Cn2c3c(c4cc(S(C)(=O)=O)cc(Br)c42)CCC3CC(=O)O)cc1 (stereo not drawn)	
0.0035 µM	0.76 µM	CS(=O)(=O)c1cc(Br)c2c(c1)c1c(n2Cc2cccc(Cl)c2)C(CC(=O)O)CC1 (stereo not drawn)	

Ki [3]	Ki [5]	Compound	also measured
0.0026 µM	0.0022 µM	O=C(O)CC1CCCc2c1n(Cc1ccc(Cl)cc1)c1c(Br)cccc21 (stereo not drawn)	
0.0063 µM	0.0066 µM	O=Cc1cccc2c3c(n(Cc4ccc(Cl)cc4)c12)C(CC(=O)O)CCC3 (stereo not drawn)	
0.11 µM	0.088 µM	O=C(O)CC1CCCc2c1n(Cc1ccc(Cl)cc1)c1c(C(=O)Nc3ccccc3)cccc21 (stereo not drawn)	
0.0036 µM	0.52 µM	C=Cc1cc(S(C)(=O)=O)cc2c3c(n(Cc4ccc(Cl)cc4)c12)C(CC(=O)O)CC3 (stereo not drawn)	
0.0026 µM	1.2 µM	CC(=O)c1cc(S(C)(=O)=O)cc2c3c(n(Cc4ccc(Cl)cc4)c12)[C@@H](CC(=O)O)CC3	Ki [1]: > 20 µM; Ki [2]: > 20 µM; Ki [4]: > 20 µM; IC50 [9]: 0.0079 µM; Ki [6]: 0.23 µM; Ki [7]: > 20 µM; IC50 [10]: 0.002 µM; Ki [8]: > 20 µM
0.0028 µM	0.172 µM	C[S+]([O-])c1cccc2c3c(n(Cc4ccc(Cl)cc4)c12)C(CC(=O)O)CCC3 (stereo not drawn)	
0.0044 µM	0.22 µM	CS(=O)(=O)c1cc(Br)c2c(c1)c1c(n2Cc2ccc3sc(Cl)c(Cl)c3n2)C(CC(=O)O)CC1 (stereo not drawn)	
1.9 µM	2.7 µM	CS(=O)(=O)c1ccc(Cn2c3c(c4cc(S(C)(=O)=O)cc(Br)c42)CCC3CC(=O)O)cc1 (stereo not drawn)	
0.0085 µM	16 µM	CC(O)c1cc(S(C)(=O)=O)cc2c3c(n(Cc4ccc(Cl)cc4)c12)C(CC(=O)O)CC3 (stereo not drawn)	
0.0019 µM	0.0051 µM	CS(=O)(=O)c1cccc2c3c(n(Cc4ccc(Cl)cc4)c12)C(CC(=O)O)CCC3 (stereo not drawn)	
0.0045 µM	0.73 µM	CS(=O)(=O)c1cc(-c2cccs2)c2c(c1)c1c(n2Cc2ccc(Cl)cc2)C(CC(=O)O)CC1 (stereo not drawn)	
0.036 µM	0.0024 µM	O=C(O)CC1CCCc2c1n(Cc1ccc(Cl)cc1)c1ccccc21 (stereo not drawn)	
1.1 µM	2.3 µM	CN(C)S(=O)(=O)c1ccc2c(c1)c1c(n2Cc2ccc(Cl)cc2)C(CC(=O)O)CC1 (stereo not drawn)	
0.023 µM	1.8 µM	CC(C)[S+]([O-])c1cccc2c3c(n(Cc4ccc(Cl)cc4)c12)C(CC(=O)O)CCC3 (stereo not drawn)	
0.0095 µM	3.6 µM	CC(=O)c1cc(S(C)(=O)=O)cc2c3c(n(Cc4ccc(Cl)cc4)c12)C(CC(=O)O)CC3 (stereo not drawn)	
0.0017 µM	0.0091 µM	CC(C)c1cccc2c3c(n(Cc4ccc(Cl)cc4)c12)C(CC(=O)O)CCC3 (stereo not drawn)	
0.3 µM	2.1 µM	CS(=O)(=O)c1ccc2c(c1)c1c(n2Cc2ccc(Cl)cc2)C(CC(=O)O)CC1 (stereo not drawn)	
0.0097 µM	1.1 µM	CS(=O)(=O)c1cc(C#N)c2c(c1)c1c(n2Cc2ccc(Cl)cc2)C(CC(=O)O)CC1 (stereo not drawn)	

From ChEMBL document CHEMBL1148660, “Identification of an indole series of prostaglandin D2 receptor antagonists” (Bioorg Med Chem Lett, 2006)
